In the Deep4Chem optical property database one finds photoluminescence quantum yield data, which are given here for 36 compounds.

A short description of this data set: photoluminescence quantum yield (fraction); solvent given as SMILES.

“And” between values parts separate entries of the source, which are not always exact repeats. Equal values may be shown once.

Compound `COc1cc(C(=O)O)ccc1O` had a photoluminescence quantum yield (in O) of 0.03.
For the setting “in ClCCl”, `Clc1cc(Cl)c(B2c3ccccc3Nc3ccccc32)c(Cl)c1` had a photoluminescence quantum yield of 0.82.
Compound `CCCCCCCCOc1ccc(C2=C(c3ccc(OCCCCCCCC)cc3)C(C)(C)c3ccccc32)cc1` had a photoluminescence quantum yield (in C1CCCCC1) of 0.11.
As for `CCCC1(CCC)c2cc(-c3cccc(Cc4ccc(/C=C/c5ccccc5)cc4)c3)ccc2-c2ccc(-c3cccc(Cc4ccc(/C=C/c5ccccc5)cc4)c3)cc21`, the photoluminescence quantum yield (in C1CCCCC1) is 0.08.
Turning to `c1ccc(-c2nnc(-c3ccccc3)n2-c2ccc(N3c4ccccc4N(c4ccccc4)c4ccccc43)cc2)cc1`, the photoluminescence quantum yield is 0.03 (in Cc1ccccc1) and 0.12 (in c1cc(-n2c3ccccc3c3ccccc32)cc(-n2c3ccccc3c3ccccc32)c1).
Under “in ClC(Cl)Cl”, `F[B-]1(F)n2c(ccc2-c2ccccc2)C(c2ccc(I)cc2)=C2C=CC(c3ccccc3)=[N+]21` yielded a photoluminescence quantum yield of 0.2.
Turning to `COc1ccc(-c2cc3c4c(c2)CCc2cc(-c5ccc(OC)cc5)cc(c2-4)CC3)cc1`, the photoluminescence quantum yield is, setting by setting: (in C1CCCCC1) 0.81; (in C1CCOC1) 0.76; (in CC#N) 0.6; (in CCCCCC) 0.92; (in CCO) 0.53; (in CN(C)C=O) 0.55. Besides, the photoluminescence quantum yield is, setting by setting: (in CO) 0.45; (in Cc1ccccc1) 1; (in ClC(Cl)Cl) 0.39; (in ClCCl) 1.
With `Cc1ccc(/C=C(\c2ccccc2)c2nc3ccccc3o2)cc1`, the photoluminescence quantum yield (in C1CCCCC1) was 0.008 and the photoluminescence quantum yield (in CO) stood at 0.004.
On to `CCCCCCN1C(=O)c2cccc3c(-c4sc(-c5ccc6c7c(cccc57)C(=O)N(CCCCCC)C6=O)c5c4OCCO5)ccc(c23)C1=O`, for which the photoluminescence quantum yield (in ClC(Cl)Cl) amounted to 0.22.
For the compound `CC(C)(C)c1ccc2oc3nc4oc5ccc(N6c7ccccc7Oc7ccccc76)cc5c4cc3c2c1`, the photoluminescence quantum yield (in ClC(Cl)Cl) is 0.057.
In turn, `CC(C)[Si](C#Cc1ccc(C#C[Si](C(C)C)(C(C)C)C(C)C)c2nc3c(nc12)C1c2ccccc2C3c2ccccc21)(C(C)C)C(C)C` returned a photoluminescence quantum yield (in CCCCCC) of 0.1.
Compound `O=[N+]([O-])c1ccc(-c2cn3ccc[n+]3[n-]2)cc1` gave a photoluminescence quantum yield (in ClCCl) of 0.16.
Turning to `COc1ccc(-c2nc(-c3ccccc3)c(-c3ccccc3)[nH]2)cc1`, the photoluminescence quantum yield (in CO) came out at 0.18.
For the compound `CC1=CC(c2ccc3ccccc3c2)=[O+][B-]2(OC(=O)C(=O)O2)O1`, the photoluminescence quantum yield was 0.03 (in CC#N) and 0.06 (in ClC(Cl)(Cl)Cl).
The compound `C(=C(c1ccccc1)c1ccccc1)c1ccc(-c2ccc(-c3nc4c5ccccc5c5ccccc5c4n3-c3cccc(-c4ccc(C=C(c5ccccc5)c5ccccc5)cc4)c3)cc2)cc1` displayed a photoluminescence quantum yield (in C1CCOC1) of 0.145.
`N#Cc1ccc(C=C(c2ccccc2)c2ccccc2)cc1`: the photoluminescence quantum yield (in C1CCOC1) stood at 0.046.
With `CCCCn1c2ccccc2c2c1c1c3ccccc3n(CCCC)c1c1c3ccccc3n(CCCC)c21`, the photoluminescence quantum yield (in C1CCOC1) is 0.19.
Under “in Cc1ccccc1”, `CCCC1=Cc2nc1ccc1[nH]c(cc1CCC)c1nc(c(OC(C)=O)cc3[nH]c2cc3CCC)C(CCC)=C1` registered a photoluminescence quantum yield of 0.28.
Turning to `c1ccc(N(c2ccccc2)c2ccc3ccc4c(N(c5ccccc5)c5ccccc5)ccc5ccc2c3c54)cc1`, where the note is “in ClCCl”, the photoluminescence quantum yield worked out at 0.78.
As for `O=Cc1cc(C=O)c2ccc3c(N4CCCCC4)cc(N4CCCCC4)c4ccc1c2c43`, the photoluminescence quantum yield is, setting by setting: (in C1COCCO1) 0.92; (in CC#N) 0.88; (in CC(C)=O) 0.9; (in CCCCCC) 0.93; (in CCO) 0.87; (in CCOC(C)=O) 0.93. Also, the photoluminescence quantum yield by setting is: (in CO) 0.83; (in CS(C)=O) 0.75; (in Cc1ccccc1) 0.94; (in ClCCl) 0.91.
Consider `NS(=O)(=O)c1ccc(N2N=C(c3ccc(O)cc3)CC2c2ccc([N+](=O)[O-])cc2)cc1` (configuration not stated), for which the photoluminescence quantum yield came to 0.01 (in C1CCOC1); 0.01 (in C1COCCO1); 0.01 (in CC#N); 0.02 (in CC(C)O); 0.01 (in CCO); 0.01 (in CCOC(C)=O). Moreover, the photoluminescence quantum yield is, setting by setting: (in CN(C)C=O) 0.01; (in CS(C)=O) 0.01.
On to `Fc1ccc(-c2cc3ccc4cc(-c5ccc(F)cc5)cc5ccc(c2)c3c45)cc1`, for which the photoluminescence quantum yield is, setting by setting: (in C1CCCCC1) 0.04; (in C1CCOC1) 0.07; (in CC#N) 0.08; (in CCCCCC) 0.02; (in CCO) 0.05; (in CN(C)C=O) 0.09. Further, the photoluminescence quantum yield turned out to be 0.05 (in CO), 0.07 (in Cc1ccccc1), 0.04 (in ClC(Cl)Cl) and 0.05 (in ClCCl).
`c1cc(-c2ccc3c(c2)CCCO3)ccc1-c1ccc2c(c1)CCCO2` gave a photoluminescence quantum yield (in C1CCCCC1) of 0.6.
Turning to `C(=C\c1nc2ccccc2[nH]1)/c1ccc(/C=C/c2nc3ccccc3[nH]2)cc1`, the photoluminescence quantum yield by setting is: (in C1CCOC1) 0.855; (in CC#N) 0.679; (in CC(C)=O) 0.609; (in CN(C)C=O) 0.775; (in CO) 0.738; (in CS(C)=O) 0.63.
`COc1ccc(C#CC2=C3CCc4ccccc4C3=[O+][B-](F)(F)O2)cc1`: the photoluminescence quantum yield (in ClCCl) came out at 0.145.
As to `CCCC1(CCC)c2cc(-c3ccc4c(c3)C(CCC)(CCC)c3cc(C(C)(C)CC)ccc3-4)ccc2-c2ccc(-c3ccc4c(c3)C(CCC)(CCC)c3cc(C(C)(C)CC)ccc3-4)cc21`, the photoluminescence quantum yield (in C1CCCCC1) stood at 0.93.
`F[B-]1(F)OC(C#Cc2ccccc2)=C2CCc3ccccc3C2=[O+]1`: the photoluminescence quantum yield (in ClCCl) was found to be 0.83.
As to `c1ccc2c(P(c3c4ccccc4cc4ccccc34)c3c4ccccc4cc4ccccc34)c3ccccc3cc2c1`, where the note is “in C1CCOC1”, the photoluminescence quantum yield was found to be 0.
The compound `COC(=O)c1nc(-c2cccc3ccccc23)oc1C` yielded a photoluminescence quantum yield (in C1CCCCC1) of 0.58, a photoluminescence quantum yield (in CC#N) of 0.51, a photoluminescence quantum yield (in CCO) of 0.5 and a photoluminescence quantum yield (in CCOC(C)=O) of 0.54.
`O=C(O)CCNc1cccc2ccccc12`: the photoluminescence quantum yield (in CCO) came out at 0.54.
`CC(=C(C#Cc1ccccc1)C#Cc1ccccc1)c1ccc(C(C)=C(C#Cc2ccccc2)C#Cc2ccccc2)cc1` came in with a photoluminescence quantum yield (in ClC(Cl)Cl) of 0.03.
On to `c1ccc2cc(-n3cnc4ccccc43)ccc2c1`, for which the photoluminescence quantum yield reads like this: (in C1CCCCC1) 0.23; (in CCOC(C)=O) 0.18; (in CO) 0.16.
In the case of `CC(=O)c1ccc(-c2nc3ccc(N(C)C)c(Cl)c3s2)cc1`, the photoluminescence quantum yield runs as follows: (in C1CCCCC1) 0.5; (in CC#N) 0.7; (in CO) 0.054; (in ClC(Cl)Cl) 0.9.
`Cc1ccc2nc3cc4ccccc4cc3c(-c3ccccc3)c2c1`: the photoluminescence quantum yield (in ClCCl) was determined as 0.47.
As for `CCOc1ccc2c(-c3nc(-c4ccccc4)no3)cc(=O)oc2c1`, the photoluminescence quantum yield by setting is: (in CCO) 0.6; (in ClC(Cl)Cl) 0.31.
As to `Cn1c(-c2ccc(-c3nc(-c4ccccc4)c(-c4ccccc4)n3C)cc2)nc(-c2ccccc2)c1-c1ccccc1`, the photoluminescence quantum yield (in CC#N) was 0.9 and 0.66.
